For five molecules, IC50 and Drug uptake results are on record in ChEMBL document CHEMBL5236666, “Investigation of mitochondrial targeting ability of sydnones and sydnonimines and mitochondria-targeted delivery of celecoxib” (Bioorg Med Chem Lett, 2023).

The test system of series [1] is HeLa. Nature of the series: Cytotoxicity against human HeLa cells assessed as inhibition of cell proliferation. It is filed as functional, cell-based.
Series [2] deals with HepG2. The experiment in a line: Cytotoxicity against human HepG2 cells assessed as inhibition of cell proliferation. In kind it is functional, cell-based.
Series [3] has as its system HeLa. Nature of the series: Cytotoxicity against human HeLa cells assessed as inhibition of cell proliferation in presence of 100 uM of DIBAC. It is filed as functional, cell-based.
In series [4] the test system is HepG2. Nature of the series: Cytotoxicity against human HepG2 cells assessed as inhibition of cell proliferation in presence of 100 uM of DIBAC. In kind it is functional, cell-based.
Series [5] is described as follows: Drug uptake in human HeLa cells assessed as increase in colocalization by measuring fluorescence intensity at 5 uM incubated for 30 mins. It is filed as ADME, cell-based. The conditions noted are these: 0.5 h.
Series [6] in a line: Drug uptake in mitochondria of human HeLa cells incubated for 30 mins. It is filed as ADME. The conditions noted are these: 0.5 h.

One may read the IC50 as the concentration that inhibits the measured activity by half.

Take `CCOC(=O)c1ccc(-[n+]2cc([N-]S(=O)(=O)c3ccc(-n4nc(C(F)(F)F)cc4-c4ccc(C)cc4)cc3)on2)cc1`: the IC50 is above 100 µM in the series on HeLa [1], above 100 µM in the series on HepG2 [2], 85.3 µM in the series with HeLa [3] and 66.2 µM with HepG2 [4].
Consider `O=C(NCCCNC(=O)c1ccc(-[n+]2cc([O-])on2)cc1)OCC1C[C@@H]2C=C[C@H]1C2` (some centres undefined), for which the Drug uptake result in series [5] is reported as “Active”.
As to `CC1=CC(C)=[N+]2C1=Cc1ccc(CCC(=O)NCCCNC(=O)c3ccc(-[n+]4cc(O)on4)cc3)n1[B-]2(F)F`, the Drug uptake result in series [6] is reported as “Active”.
In the case of `CC1=CC(C)=[N+]2C1=Cc1ccc(CCC(=O)NCCCNC(=O)c3ccc(-[n+]4noc(O)c4-c4ccccc4)cc3)n1[B-]2(F)F`, the Drug uptake result in series [6] is reported as “Not Active”.
As for `Cc1ccc(-c2cc(C(F)(F)F)nn2-c2ccc(S(N)(=O)=O)cc2)cc1` [CELECOXIB], the IC50 in the series on HeLa [1] was determined as 32.7 µM; in the series on HepG2 [2] it was 43.6 µM.
